Earlier results in patent US20020177579A1, “Extended release formulation of water-soluble drugs” (priority 2000, published 2002).
Structures can show the parent of a compound that is named as a salt.

Key:
[1] = for Fraction Absorbed: in vivo

SMILES: CCOC(=O)[C@H](CCc1ccccc1)N[C@H]1CCc2ccccc2N(CC(=O)O)C1=O.Cl [Benazepril HCI]
- Solubility: >100 mg/mL
- Fraction Absorbed [1]: 37%

SMILES: COc1ccc([C@@H]2Sc3ccccc3N(CCN(C)C)C(=O)[C@@H]2OC(C)=O)cc1 [Diltiazem hydrochloride, 1,5-benzothiazepin-4 (5H) one, 3-(acetyloxy)-5-[2-(dimethylamino)ethyl]-2,3-dihydro-2-(4-methoxyphenyl)-, monohydrochloride, (+)-cis-4]
- solubility in 100% ethanol (100% ethanol): slightly soluble
- solubility in benzene (benzene): not soluble
- solubility in chloroform (chloroform): freely soluble
- solubility in methanol (methanol): freely soluble
- solubility in water (water): freely soluble
- absolute bioavailability ([1]; compared to intravenous administration): about 40%

SMILES: CCC(=O)O[C@@H](O[P@](=O)(CCCCc1ccccc1)CC(=O)N1C[C@H](C2CCCCC2)C[C@H]1C(=O)O)C(C)C [Fosinopril Sodium]
- Solubility: 100 mg/mL
- Fraction Absorbed [1]: 36%

SMILES: CN1C2CCCC1CC(NC(=O)c1nn(C)c3ccccc13)C2 (centres unmarked) [Granisetron HCI]
- Solubility (in words): “Readily
- Fraction Absorbed [1]: ˜90%

SMILES: COCCc1ccc(OCC(O)CNC(C)C)cc1 (centres unmarked) [Metoprolol Succinate]
- Solubility (in words): “Freely

SMILES: CCOC(=O)[C@H](CCc1ccccc1)N[C@@H](C)C(=O)N1Cc2ccccc2C[C@H]1C(=O)O [Quinapril HCI]
- Solubility (in words): “Freely
- Fraction Absorbed [1]: 60%

SMILES: CNS(=O)(=O)Cc1ccc2[nH]cc(CCN(C)C)c2c1 [Sumatriptan Succinate]
- Solubility (in words): “Readily
- Fraction Absorbed [1]: 15%
